Measurements as given in PubChem BioAssay (NCI).
Where “and” joins values, the source holds several entries; their conditions need not be identical. Equal values may be shown once.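 Following 48 hours of exposure in 96-well plates, responses at five concentrations were used to interpolate endpoints linearly. Abbreviation: GI50, concentration required for 50% inhibition of growth. The concentration for full growth arrest is given as TGI.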

Key:
Test in all cases: NCI tumour cell line growth inhibition, 48 h
SNB-78 CNS = system: SNB-78 CNS
M19-MEL melanoma = system: M19-MEL melanoma
XF 498 CNS = system: XF 498 CNS
DMS 273 small cell lung = system: DMS 273 small cell lung
DLD-1 colon = system: DLD-1 colon
RXF-631 renal = system: RXF-631 renal
HOP-18 NSCLC = system: HOP-18 NSCLC
DMS 114 small cell lung = system: DMS 114 small cell lung
MDA-N = system: MDA-N
P388/ADR leukemia = system: P388/ADR leukemia
P388 leukemia = system: P388 leukemia

| SMILES | TGI (SNB-78 CNS) | TGI (M19-MEL melanoma) | TGI (XF 498 CNS) | TGI (DMS 273 small cell lung) | TGI (DLD-1 colon) | TGI (RXF-631 renal) | TGI (HOP-18 NSCLC) | TGI (DMS 114 small cell lung) | TGI (MDA-N) | further results |
| --- | --- | --- | --- | --- | --- | --- | --- | --- | --- | --- |
| CC(=O)Oc1cc2c(cc1OC(C)=O)C1(C)CCC2(C)c2cc(OC(C)=O)c(OC(C)=O)cc21 | > 100 µM | 75.2 µM | 29.1 µM | > 100 µM | > 100 µM | > 100 µM | – | – | – | – |
| CCCCCCCCCCCCCP(=O)(O)O | > 100 µM | > 100 µM | > 100 µM | > 100 µM | > 100 µM | > 100 µM | > 100 µM | > 100 µM | – | – |
| CC(=O)Oc1c(C)c(-c2ccccc2)c(C)c(-c2ccccc2)c1C(=S)c1ccccc1 | > 100 µM | > 100 µM | – | – | > 100 µM | > 100 µM | > 100 µM | – | – | – |
| CN(C)CCC(=O)N1C/C(=C\c2ccc(Cl)c(Cl)c2)C(=O)/C(=C/c2ccc(Cl)c(Cl)c2)C1 | 1.66 µM | 1.13 µM | 2.32 µM | 0.316 µM | 0.468 µM | – | 2.3 µM | – | 0.84 µM | – |
| CCOC(=O)[CH-]C(=O)C12CC3CC(CC(C3)C1)C2.CCOC(=O)[CH-]C(=O)C12CC3CC(CC(C3)C1)C2.CC[O-].CC[O-].[Ti+4] | > 100 µM | > 100 µM | – | > 100 µM | > 100 µM | > 100 µM | > 100 µM | > 100 µM | – | GI50 (SNB-78 CNS): > 100 µM; GI50 (HOP-18 NSCLC): > 100 µM; GI50 (M19-MEL melanoma): > 100 µM; GI50 (DMS 114 small cell lung): > 100 µM; GI50 (DMS 273 small cell lung): > 100 µM; GI50 (DLD-1 colon): > 100 µM; GI50 (RXF-631 renal): > 100 µM |
| Cc1ccc(C)c(NC(=O)CC2Sc3ccccc3NC2=O)c1 (stereo not drawn) | 28.9 µM and 61.1 µM | > 100 µM | 22.7 µM and > 100 µM | > 100 µM | > 100 µM | – | 36 µM and 70 µM | > 100 µM | > 100 µM | GI50 (M19-MEL melanoma): 37 µM and > 100 µM; GI50 (XF 498 CNS): 13.7 µM and 29.1 µM; GI50 (MDA-N): 22.1 µM and > 65.6 µM; GI50 (DMS 273 small cell lung): 23.1 µM and 97 µM; GI50 (DLD-1 colon): > 93.6 µM |
| O=C1C=C(Nc2ccccc2C(=O)CC(=O)C(=O)Nc2cccc([N+](=O)[O-])c2)c2ccccc2C1=O | > 100 µM | 19.3 µM | 53.8 µM | > 100 µM | > 100 µM | > 100 µM | – | 84.9 µM | – | – |
| O=C(Nc1ccc(Cl)cc1)C1C(=O)C(=O)N(c2ccc(Cl)cc2)C1=O (stereo not drawn) | > 100 µM | > 100 µM | > 100 µM | > 100 µM | > 100 µM | > 100 µM | > 100 µM | > 100 µM | – | – |
| C[C@]12CC=CC(=O)[C@@]1(C)CCC(=O)C2 | > 100 µM | > 100 µM | > 100 µM | > 100 µM | > 100 µM | > 100 µM | – | > 100 µM | – | – |
| CCCCCCCCCCCCCCCCCCOC[C@H](COP(=O)(O)O[C@H]1[C@H](O)[C@@H](O)[C@H](O)C[C@H]1O)OC | – | – | – | – | – | – | – | – | > 100 µM and 25.4 µM | GI50 (MDA-N): 64.1 µM and 12 µM |
| Cc1ccc(S(=O)(=O)OC2CC=CC2)cc1 | > 100 µM | > 100 µM | > 100 µM | > 100 µM | > 100 µM | – | > 100 µM | > 100 µM | – | – |
| CCN1CCCc2cc3c(C(F)(F)F)cc(=O)oc3cc21 | – | – | – | – | – | – | – | – | > 100 µM | – |
| NC1=NN(c2ccccc2)C(=O)C1C(=O)CCC(=O)Nc1cccc(Cl)c1 (stereo not drawn) | > 100 µM | > 100 µM | > 100 µM | > 100 µM | > 100 µM | – | > 100 µM | > 100 µM | – | – |
| O=NNc1ccc2ccccc2n1 | – | – | – | – | – | – | – | – | > 100 µM | – |
| CC(C)C(O)(C(C)C)C(C)C | – | – | – | – | – | – | – | – | > 100 µM | – |
| O=C(O)CCCc1ccc2ccc3ccccc3c2c1 | – | – | – | – | – | – | – | – | > 100 µM | – |
| COc1ccc(NC(=O)CC/C(CC(=O)c2ccco2)=N/NC(=O)C(N)=O)cc1 | – | > 100 µM | > 100 µM | > 100 µM | > 100 µM | – | > 100 µM | > 100 µM | – | – |
| COc1cc(NCC(C#N)C#N)ccc1N=Nc1ccc(Cl)cc1 | 98.8 µM | 55.9 µM | – | 41.4 µM | 85.4 µM | > 100 µM | 39.7 µM | 48.2 µM | – | – |
| CNC(=O)OCc1nc(SSC(C)(C)C)n(C)c1COC(=O)NC | 21.2 µM | 13.6 µM | 5.47 µM | 17.3 µM | 3.18 µM | 3.42 µM | 10.8 µM | 4.15 µM | 6.59 µM | TGI (P388/ADR leukemia): > 28.2 µM; TGI (P388 leukemia): > 100 µM |
| COc1ccc([C@@]2(O)c3c(ccc(O)c3OC)[C@H]2OC)c(OC)c1 | – | > 100 µM | > 100 µM | – | > 100 µM | – | – | 75.9 µM | – | – |
| O=C(NC(=O)c1c(F)cccc1F)Nc1cccc(Oc2ncc(Cl)cn2)c1 | > 100 µM | > 100 µM | 69 µM | > 100 µM | > 100 µM | > 100 µM | > 100 µM | > 100 µM | > 22.7 µM | – |
| Cc1cc(N(CC(C)Br)CC(C)Br)ccc1N=Nc1ccccc1C(=O)O (stereo not drawn) | 40.2 µM | 29 µM | 4.62 µM | 20.5 µM | 16.6 µM | – | 8.29 µM | 11.1 µM | 20.5 µM | – |

| SMILES | TGI (SNB-78 CNS) | TGI (M19-MEL melanoma) | TGI (XF 498 CNS) | TGI (DMS 273 small cell lung) | TGI (DLD-1 colon) | TGI (RXF-631 renal) | TGI (HOP-18 NSCLC) | TGI (DMS 114 small cell lung) | TGI (MDA-N) | further results |
| --- | --- | --- | --- | --- | --- | --- | --- | --- | --- | --- |
| N[C@H](C(=O)O)[C@@H]1CC(Cl)=NO1 | > 978 µM | – | 250 µM | 328 µM | > 1000 µM | – | > 1000 µM | 258 µM | > 1000 µM | GI50 (MDA-N): 57.2 µM; TGI (P388/ADR leukemia): 16.7 µM; TGI (P388 leukemia): 16 µM |
| O=S(=O)(C1=CC(S(=O)(=O)c2ccccc2)CN(Cc2ccccc2)C1c1cccc2ccccc12)c1ccccc1 (stereo not drawn) | > 69 µM | > 69 µM | – | > 69 µM | > 69 µM | > 69 µM | – | > 69 µM | – | – |
| O=C1C(=O)c2ccccc2C(O)=C1C(C1=C(O)c2ccccc2C(=O)C1=O)c1ccc(Cl)cc1 | – | – | – | – | – | – | – | – | 3.74 µM | – |
| COc1cc(NS(=O)(=O)c2ccc(C)cc2)c2nccnc2c1 | – | 55 µM | > 100 µM | > 100 µM | > 100 µM | – | > 100 µM | 40.8 µM | – | – |
| COC(=O)C(=O)CC(=O)CCn1[nH]c(=O)c(Cl)c(Cl)c1=O | > 100 µM | > 100 µM | > 100 µM | > 100 µM | > 100 µM | – | – | > 100 µM | – | – |
| CCC[CH2][Sn]([CH2]CCC)([O]C(=O)CN)[O]C(=O)CN | 72 µM | > 100 µM | 48 µM | > 100 µM | > 100 µM | – | – | 46.5 µM | – | GI50 (SNB-78 CNS): 21.6 µM; GI50 (M19-MEL melanoma): 49.7 µM; GI50 (XF 498 CNS): 19.6 µM; GI50 (DMS 114 small cell lung): 17.9 µM; GI50 (DMS 273 small cell lung): 38.6 µM; GI50 (DLD-1 colon): 92.7 µM |
| C=CC[P@]1(=O)O[C@H](c2ccccc2)[C@H](C)N1C | > 100 µM | > 100 µM | – | > 100 µM | > 100 µM | – | > 100 µM | > 100 µM | – | – |
| CN(C)Cc1cc(C(F)(F)F)ccc1C(O)(c1ccccc1)c1ccccc1 | – | – | – | – | – | – | – | – | 33.7 µM | – |
| C=C(C)C1CC2(C)C(C)CC(O)CC2C(OC(=O)C=C(C)C)C1O (stereo not drawn) | – | – | – | – | – | – | – | – | > 100 µM | – |
| Cc1ccc(S(=O)(=O)N=Nc2c(O)[nH]c3cc(O)c(C(=O)O)cc23)cc1 | – | – | – | – | – | – | – | – | > 100 µM | – |
| O=C(O)CSCCc1ccccc1 | – | – | – | – | – | – | – | – | > 100 µM | – |
| CC(=O)C1C(c2ccccc2)C2(C)OC(=O)C(C#N)C12C (stereo not drawn) | > 100 µM | > 100 µM | > 100 µM | > 100 µM | > 100 µM | – | > 100 µM | > 100 µM | – | – |
| O=C1N/C(=C\[N+](=O)[O-])c2ccccc21 | > 100 µM | > 100 µM | – | > 100 µM | > 100 µM | > 100 µM | > 100 µM | > 100 µM | – | – |
| CNC(=O)OCc1c(COC(=O)NC)c(-c2ccc(-c3ccccc3)cc2)n(C)c1C | – | – | – | – | – | – | – | – | 18.5 µM | – |
| Cc1cn(C2CC(OC(=O)c3ccc(Cl)cc3)C(COC(=O)c3ccc(Cl)cc3)O2)c(=O)[nH]c1=O (stereo not drawn) | – | – | – | – | – | – | – | – | > 100 µM | – |
| NC(CCCC(N)P(=O)(O)O)P(=O)(O)O (stereo not drawn) | > 100 µM | > 100 µM | – | > 100 µM | > 100 µM | > 100 µM | > 100 µM | > 100 µM | – | – |
| NCCCNCCS | > 100 µM | – | > 100 µM | > 100 µM | – | > 100 µM | > 100 µM | – | > 100 µM | – |
| Cc1ccc(S(=O)(=O)N/N=C2\CCCCC23CCC(=O)NC3)cc1 (stereo not drawn) | > 100 µM | > 100 µM | – | > 100 µM | > 100 µM | > 100 µM | > 100 µM | > 100 µM | – | – |
| O=C(Nc1ccc(C(F)(F)F)cc1[N+](=O)[O-])C(=O)C1NC(=S)NC1=O (stereo not drawn) | > 100 µM | > 100 µM | – | > 100 µM | > 100 µM | > 100 µM | > 100 µM | > 100 µM | – | – |
| N#CCC(=O)N/N=C1/C(=O)N(c2ccc(Cl)cc2)C(=O)C(=O)C1c1nc2ccccc2s1 (stereo not drawn) | > 100 µM | > 100 µM | > 100 µM | > 100 µM | > 100 µM | – | – | > 100 µM | – | – |
| CC1(O)C(C)(O)C2(C)O[Te]3(OC12C)OC1(C)C(C)(O)C(C)(O)C1(C)O3 (stereo not drawn) | > 100 µM | 70.8 µM | > 100 µM | 67.3 µM | > 100 µM | > 100 µM | – | 54.4 µM | – | – |
| COc1ccc(C=O)cc1O[Si](C)(C)C(C)(C)C | > 100 µM | > 100 µM | – | > 100 µM | > 100 µM | – | > 100 µM | > 100 µM | – | – |
